Measured values: patent US5206220A (Research Corporation Technologies, Inc., priority 1991, dated 1993)
Converted amounts (≈) assume the structure as drawn. “And” between values parts separate entries of the source, which are not always exact repeats. Equal entries are not always repeated. Where two headings read alike, the source gives them in different places. Blank lines part the entries; values can stand above or below the compound they belong to. Peptide text beside a SMILES is read from it.

Experiments:
[1] = cited from earlier work
[2] = system: cells; conditions: cited from earlier work
[3] = storage in aqueous solution, diketopiperazine formation; cited from earlier work
[4] = rats, 0.5 mmol/kg; same value at longer times; cited from earlier work
[5] = administered for TPN; cited from earlier work
[6] = cited from earlier work; remark: listed apart in the source
[7] = rats, after 24 h, cited from earlier work
[8] = Clearance of γ-GluGln from plasma, release of plasma glutamine; type: in vivo, mice; conditions: for Glutamine Concentration (plasma), individual mice / Glutamine Concentration (plasma), Mean + Standard Error: 29 μmoles γ-GluGln i.v.; for Glutamine Concentration (plasma), Mean + Standard Error: N = 6
Protocol: (§1) Sci. 18:233-236] or accomplished by standard amino acid analysis techniques.
Mice were injected with 29 μmoles of γ-GluGln via the external jugular vein. Control animals were injected with an equal volume of saline. Blood was sampled at 10 min. and at 60 min after injection.

[9] = γ-GluGln stability in Aminosyn-PF 10%; type: physicochemical; conditions: sterile, room temperature, one month, 4.5 and 9 months
Protocol: as §1
To determine the stability of γ-GluGln under typical storage conditions, γ-GluGln was added to Aminosyn-PF 10% under sterile conditions and left at room temperature.

[10] = Distribution of γ-GluTyr in urine and plasma; type: in vivo, mice
Protocol: Urine was collected from mice injected with γ-GluTyr to determine whether or not the peptide was excreted into the urine. Mice were anesthetized with pentobarbital and then injected with 20 μl 140 mM γ-GluTyr (2.8 μmol). No urine was voided during the 60-min experiment, during which time the mice remained anesthetized. At the end of the experiment, the urinary bladders were tied off, removed and blood was collected from the heart for analysis. At the end of 60 min, a maximum of 0.13% of the injected γ-GluTyr was excreted in the urine whereas the plasma contained 12-25 μM γ-GluTyr. If these mice are assumed to have a total plasma volume of 4 ml, then only about 4% of the injected γ-GluTyr remained in the plasma at 60 min post-injection.

[11] = target: T1, γ-GTase (Mus musculus, UniProt Q60928); test: Effects of inhibiting γ-GTase with acivicin in mice injected with γ-GluTyr; type: in vivo; conditions: for Tyr (plasma) / Phe (plasma) / γ-GluTyr (plasma): 2.8 μmol γ-GluTyr i.v., 10 min postinjection; for γ-GluTyr excreted: lost in the urine at 60 min postinjection
T1 construct: from tissue; host or cells: live mice (whole animal; kidney named as a site of high activity)
T1 sequence (Q60928 1-379 limits assumed): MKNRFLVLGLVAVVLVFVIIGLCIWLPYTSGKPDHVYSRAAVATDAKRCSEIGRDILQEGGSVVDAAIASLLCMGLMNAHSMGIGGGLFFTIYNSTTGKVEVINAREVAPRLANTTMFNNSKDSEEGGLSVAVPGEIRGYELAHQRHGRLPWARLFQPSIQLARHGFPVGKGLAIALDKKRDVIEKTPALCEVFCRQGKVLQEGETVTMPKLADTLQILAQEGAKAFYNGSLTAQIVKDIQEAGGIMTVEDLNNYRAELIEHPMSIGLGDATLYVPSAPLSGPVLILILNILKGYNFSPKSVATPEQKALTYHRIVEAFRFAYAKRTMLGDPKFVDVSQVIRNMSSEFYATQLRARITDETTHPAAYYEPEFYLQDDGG
T1 sequence (Q60928 380-568 limits assumed): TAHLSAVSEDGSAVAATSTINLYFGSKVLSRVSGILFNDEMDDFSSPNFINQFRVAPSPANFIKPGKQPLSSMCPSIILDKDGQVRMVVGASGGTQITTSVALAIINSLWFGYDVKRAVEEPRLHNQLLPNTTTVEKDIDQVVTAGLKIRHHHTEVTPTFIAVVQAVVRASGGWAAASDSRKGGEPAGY
Protocol: To test the role of γ-GTase in degradation of γ-GluTyr in vivo an additional experiment was conducted. […] Control mice received saline rather than acivicin prior to intravenous injection of 2.8 μmol of γ-GluTyr. In test mice, an intraperitoneal injection of acivicin was made 90 min prior to the injection of 2.8 μmol γ-GluTyr. Plasma was sampled after 10 min and 60 min, and urine was collected after 60 min.
The kidney is generally unable to prevent the loss of intact peptides in the urine. Instead, peptides are hydrolyzed to free amino acids, which can then be salvaged by absorption into the bloodstream. […] When γ-GTase is inhibited by acivicin, unhydrolyzed peptide should be lost in the urine. The data in Table 5 are consistent with a role for γ-GTase in the hydrolysis of γ-GluTyr to prevent its excretion in the urine. When this enzyme is inhibited by acivicin, the amount of unhydrolyzed peptide which appears in the urine in 60 min increases markedly over peptide found in the urine of control mice.

[12] = target: T2, bovine kidney γ-GTase (Sigma Type II) (Bos taurus, UniProt G3N2D8); test: In vitro release of tyrosine from γ-GluTyr by γ-glutamyl transpeptidase; type: biochemical; conditions: γ-GluTyr in Aminosyn-PF 10%, pH 7.4, monitored by HPLC
T2 construct: the solution treated with bovine kidney γ-GTase (Sigma Type II) at pH 7.4; purchased Sigma Type II; host or cells: bovine kidney (tissue-derived)
T2 sequence (G3N2D8 1-379 limits assumed): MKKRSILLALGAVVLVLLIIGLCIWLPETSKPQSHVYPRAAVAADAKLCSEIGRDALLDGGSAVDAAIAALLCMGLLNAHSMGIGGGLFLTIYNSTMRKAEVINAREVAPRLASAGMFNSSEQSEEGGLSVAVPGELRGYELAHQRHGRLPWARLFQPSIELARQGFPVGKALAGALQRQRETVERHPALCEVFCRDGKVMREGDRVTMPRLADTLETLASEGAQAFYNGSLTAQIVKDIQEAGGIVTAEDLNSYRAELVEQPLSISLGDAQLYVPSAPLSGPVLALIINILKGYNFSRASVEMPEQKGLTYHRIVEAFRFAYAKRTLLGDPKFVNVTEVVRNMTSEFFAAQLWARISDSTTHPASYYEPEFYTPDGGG
T2 sequence (G3N2D8 380-568 limits assumed): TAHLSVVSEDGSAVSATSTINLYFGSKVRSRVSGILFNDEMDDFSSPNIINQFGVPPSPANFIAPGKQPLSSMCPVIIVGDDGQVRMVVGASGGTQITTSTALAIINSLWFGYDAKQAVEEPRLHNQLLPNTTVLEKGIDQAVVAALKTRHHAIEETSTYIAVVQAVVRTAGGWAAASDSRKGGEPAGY
Protocol: The most likely route for metabolic degradation of γ-GluTyr involves the enzyme, γ-glutamyl transpeptidase (γ-GTase), a widely distributed enzyme in mammalian tissues. In an in vitro test of this hypothesis, γ-GluTyr was added to Aminosyn-PF 10% and the solution treated with bovine kidney γ-GTase (Sigma Type II) at pH 7.4.

[13] = Clearance of γ-GluTyr from plasma after i.v. injection; type: in vivo, mice
Protocol: Injections of 20 μl of 140 mM γ-GluTyr (2.8 μmol) were made in the external jugular vein of 30-40 g mice. The amount of γ-GluTyr was measured in the plasma at 10 min and 60 min post-injection in each animal.

[14] = Stability of γ-GluTyr in a TPN amino acid solution; type: physicochemical; conditions: equal volumes 1.8 mM γ-GluTyr and Aminosyn-PF 10%, pH 5.5, ultrafiltered, room temperature, nine-month period, HPLC
Protocol: B. In a TPN amino acid solution: Equal volumes of 1.8 mM γ-GluTyr and Aminosyn-PF 10% (Abbott Laboratories) were mixed and the pH was adjusted to 5.5. The mixture thus contained similar concentrations of the peptide and of several amino acids, including phenylalanine and histidine. A sample was taken for analysis, and the remainder of the solution was sterilized by ultrafiltration and stored at room temperature (typical storage conditions for TPN amino acid solutions). Samples for analysis were also taken at intervals over a nine-month period. All samples were analyzed by HPLC as described above.

[15] = cited from earlier work; remark: listed apart in the source
[16] = mice, 20 μL 140 mM γ-GluTyr, 10 min postinjection

SMILES: N[C@@H](CSSC[C@H](N)C(=O)O)C(=O)O [Cystine]
solubility in water [1]: 10 µg/mL (≈ 41.6 µM)

SMILES: NC(CCC(=O)NC(CSSCC(N)C(=O)O)C(=O)O)C(=O)O [γ-Glu(Cys)2, γ-L-glutamyl-L-cystine]
transport into cells [2]: are transported

SMILES: N[C@@H](CCC(=O)N[C@@H](CS)C(=O)NCC(=O)O)C(=O)O [GSH, gamma-glutamyl-cysteinylglycine, reference compound]
transport into cells [2]: does not appear to be transported into cells

SMILES: NCC(=O)N[C@@H](Cc1ccc(O)cc1)C(=O)O [GlyTyr, L-glycyl-L-tyrosine] (H-Gly-Tyr-OH)
stability in aqueous solution [3]: unstable during storage in aqueous solution
rise of plasma tyrosine levels compared with AlaTyr [4]: did not increase as rapidly

SMILES: N[C@@H](CCC(=O)N[C@@H](CSSC[C@H](NC(=O)CC[C@H](N)C(=O)O)C(=O)O)C(=O)O)C(=O)O [(γ-GluCys)2, N,N'-bis(γ-glutamyl)cystine]
transport into cells [2]: are transported

SMILES: C[C@H](N)C(=O)N[C@@H](CCC(N)=O)C(=O)O [AlaGln, alanylglutamine] (H-Ala-Gln-OH)
stability in aqueous solution [3]: unstable during prolonged storage in aqueous solution

SMILES: CC(=O)N[C@@H](CSSC[C@H](NC(C)=O)C(=O)O)C(=O)O [N,N'-bis-acetylcystine]
urinary losses [5]: large urinary losses

SMILES: NCC(=O)N[C@@H](CCC(N)=O)C(=O)O [GlyGln, glycylglutamine] (H-Gly-Gln-OH)
stability in aqueous solution [3]: unstable during prolonged storage in aqueous solution

SMILES: Cl.N[C@@H](CS)C(=O)O [Cysteine-HCl, Cysteine-hydrochloride]
plasma ratio of cysteine to methionine (Cys/Met) ([6]; infants on TPN supplemented with L-cysteine-HCL): 0.6
adverse effect in TPN ([6]; some treated low-birth-weight infants): implicated in the production of acidosis

SMILES: C[C@H](N)C(=O)N[C@@H](Cc1ccc(O)cc1)C(=O)O [AlaTyr, L-alanyl-L-tyrosine] (H-Ala-Tyr-OH)
plasma tyrosine levels ([7]; 0.5 mmol/kg/day): unchanged
plasma tyrosine levels ([7]; 2 mmol/kg/day): increased two-fold
stability in aqueous solution [3]: unstable in aqueous solution

Glutamine Concentration (plasma), Mean + Standard Error ([8]; 10 min): 699 ± 24 µM
Glutamine Concentration (plasma), Mean + Standard Error ([8]; 60 min): 498 ± 64 µM
mice with γ-GluGln detected in the plasma ([8]; 29 μmoles γ-GluGln via external jugular vein, 10 min): three of six
appearance of γ-GluGln in the urine ([8]; mice not pretreated with acivicin): did not appear in the urine
stability of γ-GluGln under typical storage conditions [9]: remained stable
SMILES: NC(=O)CC[C@H](NC(=O)CC[C@H](N)C(=O)O)C(=O)O [γ-GluGln, gamma-L-glutamyl-L-glutamine]
Glutamine Concentration (plasma), individual mice ([8]; 10 min): 675 µM and 762 µM and 614 µM and 693 µM and 681 µM and 770 µM
Glutamine Concentration (plasma), individual mice ([8]; 60 min): 565 µM and 586 µM and 457 µM and 198 µM and 555 µM and 629 µM

peptide hydrolyzed and available as free tyrosine and glutamic acid ([10]; 60 min post-injection): at least 96%
injected γ-GluTyr remaining in the plasma ([10]; 60 min post-injection, assumed total plasma volume of 4 ml): about 4%
plasma γ-GluTyr ([10]; anesthetized mice, 2.8 μmol i.v., 60 min): 12 to 25 µM
injected γ-GluTyr excreted in the urine ([10]; anesthetized mice, 2.8 μmol i.v., at the end of 60 min): ≤ 0.13%
partitioning into red blood cells ([10]; previous studies): not partitioned into red blood cells
Tyr (plasma) ([11]; acivicin + (2 mg/30 g mouse i.p. 90 min before)): 96 ± 1 µM
Phe (plasma) ([11]; acivicin +): 96 ± 6 µM
γ-GluTyr (plasma) ([11]; acivicin +): 247 ± 17 µM
γ-GluTyr excreted ([11]; acivicin +): 16-48 % of total
Tyr (plasma) ([11]; acivicin - (saline)): 126 ± 14 µM
Phe (plasma) ([11]; acivicin -): 89 ± 8 µM
γ-GluTyr (plasma) ([11]; acivicin -): 112 ± 15 µM
γ-GluTyr excreted ([11]; acivicin -): 0.05-0.19 % of total
release of tyrosine from γ-GluTyr by the enzyme [12]: released tyrosine
clearance of γ-GluTyr from plasma ([13]; mice 30-40 g, 20 μl of 140 mM (2.8 μmol) external jugular vein, 10 min to 60 min post-injection): 2.2 to 2.6 µM/min
Plasma Phe [13, 16]: 89 ± 8 µM
Plasma Tyr [13, 16]: 126 ± 14 µM
increase of plasma concentration of tyrosine ([13]; mice, 40 μl of 140 mM γ-GluTyr, between 5 and 10 min post-injection): 32%
fall of plasma concentration of tyrosine ([13]; mice, 40 μl of 140 mM γ-GluTyr, between 10 and 60 min post-injection): 32%
clearance rate of γ-GluTyr from plasma ([13]; mice, 40 μl of 140 mM, external jugular vein): 6.8 µM/min
levels of γ-GluTyr and tyrosine during storage [14]: unchanged
SMILES: N[C@@H](CCC(=O)N[C@@H](Cc1ccc(O)cc1)C(=O)O)C(=O)O [γ-GluTyr, gamma-L-glutamyl-L-tyrosine]

SMILES: CC(=O)N[C@@H](CS)C(=O)O [NAcCys, N-acetylcysteine]
NAcCys levels (plasma) ([15]; four hours after administration (from 2)): 488 µmol/L
plasma levels of cysteine ([15]; four hours after administration of 5 g cysteine in a 200 mg/ml solution as NAcCys (basal 207)): 134 µM
administered NAcCys excreted in the urine ([15]; within 4 h): 11%
